Measured values published in publication PMC6053381, “Novel 2-phenyloxypyrimidine derivative induces apoptosis and autophagy via inhibiting PI3K pathway and activating MAPK/ERK signaling in hepatocellular carcinoma cells” (Scientific Reports, 2018).

Key:
HepG2 cells [1] = assay: Autophagy: LC3-I to LC3-II conversion, Western blot; format: cell-based
From the text: (§1) To investigate whether E5 triggers autophagic cell death in HCC cells, several characteristic events of autophagy were examined using different techniques. First, E5 stimulated LC3 puncta formation in HCC cells transfected with adenovirus expressing GFP-LC3 fusion protein as detected by fluorescence microscopy (Fig. 6A). […] Third, the effects of E5 on autophagy flux was examined by co-treatment of E5 with chloroquine (CQ), an inhibitor that prevents the formation of autolysosomes by inhibiting autophagosome-lysosome fusion and […] degradation. […] Fourth, E5 increased the expression of Atg5, which is essential for the elongation of autophagosomes (Fig. 6B), and the cell viability by E5 treatment was increased in HCC cells by knockdown of Atg5 (Fig. 6E). Finally, treatment with 3-methyladenine (3-MA), an autophagy inhibitor, partially reversed E5-induced cell death in HCC cells (Fig. 6F).
(§2) After treatment with E5 for 24 h, cells were lysed in RIPA cell lysis buffer. Equal amount of protein (30–40 μg) was separated on a 12% or 15% SDS-PAGE and transferred electrophoretically onto a 0.45 μm PVDF membrane. Then, the membrane was blocked for 2 h at room temperature with 5% non-fat dried milk in TBS buffer and incubated with appropriate antibodies at 1:1000 (overnight, 4 °C). […]

Bel7404 cells [2] = assay: as above; format: cell-based
From the text: as §1, §2

HepG2 cells [3] = assay: Cell cycle distribution by flow cytometry (PI); format: cell-based; settings: 24 h treatment
Description: (§3) Cells were incubated with E5 for 24 h, after which cells were washed, stained and subjected to flow cytometry analysis. The cell cycle was analyzed by staining with propidium iodide (PI), and the extent of cell death/apoptosis was evaluated by double staining with annexin V-FITC and PI. The fluorescence was measured with a FACScan flow cytometer (Becton Dickinson, USA).

Bel7404 cells [4] = assay: Cell cycle distribution by flow cytometry (PI); format: cell-based; settings: 24 h treatment
Description: as §3

ABL1 = ABL1 (Homo sapiens, UniProt P00519); assay: Kinase profiling (Kinase-Glo Plus or ADP-Glo); format: biochemical; settings: averages of two separate experiments
Sequence of ABL1 (P00519 whole entry, species assumed): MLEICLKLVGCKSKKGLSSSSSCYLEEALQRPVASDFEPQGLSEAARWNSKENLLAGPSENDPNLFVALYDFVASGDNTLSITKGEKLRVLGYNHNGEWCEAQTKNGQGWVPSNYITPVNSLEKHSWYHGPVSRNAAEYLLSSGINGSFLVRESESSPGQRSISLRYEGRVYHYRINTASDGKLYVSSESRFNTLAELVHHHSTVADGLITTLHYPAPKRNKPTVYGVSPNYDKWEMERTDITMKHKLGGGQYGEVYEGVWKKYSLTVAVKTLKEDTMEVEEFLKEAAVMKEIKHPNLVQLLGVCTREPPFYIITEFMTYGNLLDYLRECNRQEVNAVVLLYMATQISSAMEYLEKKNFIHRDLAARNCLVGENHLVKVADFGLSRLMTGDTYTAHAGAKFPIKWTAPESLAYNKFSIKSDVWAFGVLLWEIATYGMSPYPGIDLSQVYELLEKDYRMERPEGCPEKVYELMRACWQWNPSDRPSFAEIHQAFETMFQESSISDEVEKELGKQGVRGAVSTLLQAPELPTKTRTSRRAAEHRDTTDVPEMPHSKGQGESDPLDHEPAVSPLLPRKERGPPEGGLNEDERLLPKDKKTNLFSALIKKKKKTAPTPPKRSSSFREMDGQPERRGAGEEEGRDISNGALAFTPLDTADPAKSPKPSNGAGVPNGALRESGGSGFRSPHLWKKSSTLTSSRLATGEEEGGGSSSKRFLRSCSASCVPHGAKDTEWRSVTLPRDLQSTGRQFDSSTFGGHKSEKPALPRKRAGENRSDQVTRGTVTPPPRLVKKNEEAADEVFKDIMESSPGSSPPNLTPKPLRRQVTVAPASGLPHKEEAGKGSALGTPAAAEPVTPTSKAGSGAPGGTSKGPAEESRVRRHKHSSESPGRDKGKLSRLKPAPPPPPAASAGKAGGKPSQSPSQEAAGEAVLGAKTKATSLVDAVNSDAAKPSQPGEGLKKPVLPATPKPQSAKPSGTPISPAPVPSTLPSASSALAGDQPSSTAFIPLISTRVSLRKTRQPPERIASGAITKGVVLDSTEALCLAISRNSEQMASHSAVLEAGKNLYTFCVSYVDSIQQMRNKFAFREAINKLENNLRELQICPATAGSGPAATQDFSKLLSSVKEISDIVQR
Description: (§4) To better characterize kinase inhibition, the ability of E5 to inhibit a panel of purified kinases was assessed.
(§5) PDGFR kinase activity was measured using Caliper microfluidic mobility shift technology. Briefly, 2 μL compound solution (25 μM) in 25% DMSO per well were added into the 384 well microtiter plates. Then, 10 μL per well of enzyme solution (100 mM HEPES, 10 mM MgCl2, Brij35 (30%) 100 μL, 1 mM DTT, 20 ng enzyme) was added. After a brief centrifugation at 1,000 rpm, the kinase reactions were started by addition of 38 μL per well of peptide/ATP-solution (40 μM ATP, 6.5 μM peptide 5′-FAM-KKKKEEIYFFF-NH2, Tris-HCl buffer, pH 7.0) incubated at 30 °C for 60 min and stopped by the addition of 20 μL 35 mM EDTA per well. The electrophoretic separation of the phosphorylated and non-phosphorylated peptides was then carried out on LabChip EZ Reader II (Caliper Life Sciences). All other kinase reactions were carried out as previously reported using the Kinase-Glo Plus or ADP-Glo assay. Kinase inhibition rates were calculated per manufacturer’s instructions.

BLK = BLK (Homo sapiens, UniProt P51451); assay: Kinase profiling (Kinase-Glo Plus or ADP-Glo); format: biochemical; settings: averages of two separate experiments
Description: as §4, §5

CSF1R = CSF1R (Homo sapiens, UniProt P07333); assay: Kinase profiling (Kinase-Glo Plus or ADP-Glo); format: biochemical; settings: averages of two separate experiments
Sequence of CSF1R (P07333 20-972): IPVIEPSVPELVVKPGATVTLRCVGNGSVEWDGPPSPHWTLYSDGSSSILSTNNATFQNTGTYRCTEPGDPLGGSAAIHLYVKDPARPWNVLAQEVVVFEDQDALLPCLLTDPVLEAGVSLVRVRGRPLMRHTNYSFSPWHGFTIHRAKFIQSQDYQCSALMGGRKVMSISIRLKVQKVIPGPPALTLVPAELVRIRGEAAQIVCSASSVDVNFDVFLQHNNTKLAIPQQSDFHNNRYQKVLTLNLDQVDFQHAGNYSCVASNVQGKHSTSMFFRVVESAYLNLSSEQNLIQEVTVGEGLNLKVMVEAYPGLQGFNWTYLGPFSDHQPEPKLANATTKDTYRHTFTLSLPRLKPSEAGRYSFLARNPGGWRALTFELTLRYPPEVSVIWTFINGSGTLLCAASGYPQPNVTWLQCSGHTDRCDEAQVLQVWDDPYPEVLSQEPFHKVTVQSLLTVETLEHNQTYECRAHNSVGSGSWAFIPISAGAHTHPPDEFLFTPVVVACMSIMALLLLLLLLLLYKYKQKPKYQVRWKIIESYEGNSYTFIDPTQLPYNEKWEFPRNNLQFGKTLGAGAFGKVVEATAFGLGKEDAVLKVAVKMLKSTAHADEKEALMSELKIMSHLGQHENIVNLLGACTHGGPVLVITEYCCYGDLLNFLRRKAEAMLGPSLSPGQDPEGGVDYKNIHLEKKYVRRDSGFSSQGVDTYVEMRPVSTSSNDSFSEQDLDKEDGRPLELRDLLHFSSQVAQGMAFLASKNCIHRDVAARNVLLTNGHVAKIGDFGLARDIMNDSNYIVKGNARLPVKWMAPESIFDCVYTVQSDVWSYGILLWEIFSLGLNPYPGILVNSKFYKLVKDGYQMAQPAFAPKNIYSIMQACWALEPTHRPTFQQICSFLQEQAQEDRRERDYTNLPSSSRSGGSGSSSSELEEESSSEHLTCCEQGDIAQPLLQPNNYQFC
Description: as §4, §5

ABL2 = ABL2 (Homo sapiens, UniProt P42684); assay: Kinase profiling (Kinase-Glo Plus or ADP-Glo); format: biochemical; settings: averages of two separate experiments
Sequence of ABL2 (P42684 whole entry, species assumed): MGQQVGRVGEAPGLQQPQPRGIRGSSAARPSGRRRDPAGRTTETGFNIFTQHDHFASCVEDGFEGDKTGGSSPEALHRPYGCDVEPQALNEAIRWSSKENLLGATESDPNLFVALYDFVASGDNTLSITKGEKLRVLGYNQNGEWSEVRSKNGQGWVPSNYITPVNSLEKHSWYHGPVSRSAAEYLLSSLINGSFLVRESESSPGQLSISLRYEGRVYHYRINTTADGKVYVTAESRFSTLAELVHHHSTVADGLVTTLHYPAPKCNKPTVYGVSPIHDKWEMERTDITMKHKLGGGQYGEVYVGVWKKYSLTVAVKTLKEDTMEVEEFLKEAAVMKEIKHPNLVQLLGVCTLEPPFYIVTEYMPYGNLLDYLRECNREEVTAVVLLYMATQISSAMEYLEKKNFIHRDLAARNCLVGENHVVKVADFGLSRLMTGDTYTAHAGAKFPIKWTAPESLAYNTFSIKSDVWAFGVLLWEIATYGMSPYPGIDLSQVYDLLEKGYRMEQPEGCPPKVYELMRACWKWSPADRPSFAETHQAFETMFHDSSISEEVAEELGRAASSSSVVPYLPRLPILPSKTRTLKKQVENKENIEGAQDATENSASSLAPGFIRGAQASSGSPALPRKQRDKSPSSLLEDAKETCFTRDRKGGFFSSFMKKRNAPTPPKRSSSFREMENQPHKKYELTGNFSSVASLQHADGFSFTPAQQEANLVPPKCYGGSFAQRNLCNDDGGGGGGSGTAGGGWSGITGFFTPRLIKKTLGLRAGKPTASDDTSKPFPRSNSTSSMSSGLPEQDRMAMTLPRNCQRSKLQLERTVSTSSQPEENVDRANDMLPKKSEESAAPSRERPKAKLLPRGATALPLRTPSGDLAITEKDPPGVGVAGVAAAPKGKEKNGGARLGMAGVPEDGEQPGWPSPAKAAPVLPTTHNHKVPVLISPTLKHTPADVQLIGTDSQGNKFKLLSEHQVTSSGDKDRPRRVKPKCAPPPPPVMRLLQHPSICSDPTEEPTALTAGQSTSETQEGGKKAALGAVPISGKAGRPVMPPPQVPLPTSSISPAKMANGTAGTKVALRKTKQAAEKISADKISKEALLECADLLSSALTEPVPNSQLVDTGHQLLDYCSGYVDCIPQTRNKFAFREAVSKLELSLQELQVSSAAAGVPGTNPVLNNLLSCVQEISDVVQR
Description: as §4, §5

B-raf = B-raf (Homo sapiens, UniProt P15056); assay: Kinase profiling (Kinase-Glo Plus or ADP-Glo); format: biochemical; settings: averages of two separate experiments
Sequence of B-raf (P15056 whole entry, species assumed): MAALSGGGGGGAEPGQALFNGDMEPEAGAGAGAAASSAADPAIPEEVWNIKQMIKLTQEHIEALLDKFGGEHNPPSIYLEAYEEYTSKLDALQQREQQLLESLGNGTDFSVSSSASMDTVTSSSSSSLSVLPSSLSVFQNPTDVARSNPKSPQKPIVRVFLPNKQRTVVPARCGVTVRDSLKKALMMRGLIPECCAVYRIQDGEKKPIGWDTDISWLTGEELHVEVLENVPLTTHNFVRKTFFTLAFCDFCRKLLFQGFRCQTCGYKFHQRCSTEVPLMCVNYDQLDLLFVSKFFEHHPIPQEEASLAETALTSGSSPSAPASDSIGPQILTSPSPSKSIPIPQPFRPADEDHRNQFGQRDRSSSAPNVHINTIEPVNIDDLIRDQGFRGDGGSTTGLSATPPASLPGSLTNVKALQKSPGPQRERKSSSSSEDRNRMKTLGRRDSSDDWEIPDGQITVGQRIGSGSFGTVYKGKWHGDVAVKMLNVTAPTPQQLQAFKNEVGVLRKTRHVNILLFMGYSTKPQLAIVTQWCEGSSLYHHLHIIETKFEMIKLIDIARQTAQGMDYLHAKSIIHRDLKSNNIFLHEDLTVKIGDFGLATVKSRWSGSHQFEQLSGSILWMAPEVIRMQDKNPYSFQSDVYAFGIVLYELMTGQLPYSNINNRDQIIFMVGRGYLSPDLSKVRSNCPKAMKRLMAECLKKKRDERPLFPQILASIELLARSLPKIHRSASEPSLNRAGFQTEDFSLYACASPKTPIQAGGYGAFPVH
Description: as §4, §5

FGFR1 = FGFR1 (Homo sapiens, UniProt P11362); assay: Kinase profiling (Kinase-Glo Plus or ADP-Glo); format: biochemical; settings: averages of two separate experiments
Sequence of FGFR1 (P11362 22-822, species assumed): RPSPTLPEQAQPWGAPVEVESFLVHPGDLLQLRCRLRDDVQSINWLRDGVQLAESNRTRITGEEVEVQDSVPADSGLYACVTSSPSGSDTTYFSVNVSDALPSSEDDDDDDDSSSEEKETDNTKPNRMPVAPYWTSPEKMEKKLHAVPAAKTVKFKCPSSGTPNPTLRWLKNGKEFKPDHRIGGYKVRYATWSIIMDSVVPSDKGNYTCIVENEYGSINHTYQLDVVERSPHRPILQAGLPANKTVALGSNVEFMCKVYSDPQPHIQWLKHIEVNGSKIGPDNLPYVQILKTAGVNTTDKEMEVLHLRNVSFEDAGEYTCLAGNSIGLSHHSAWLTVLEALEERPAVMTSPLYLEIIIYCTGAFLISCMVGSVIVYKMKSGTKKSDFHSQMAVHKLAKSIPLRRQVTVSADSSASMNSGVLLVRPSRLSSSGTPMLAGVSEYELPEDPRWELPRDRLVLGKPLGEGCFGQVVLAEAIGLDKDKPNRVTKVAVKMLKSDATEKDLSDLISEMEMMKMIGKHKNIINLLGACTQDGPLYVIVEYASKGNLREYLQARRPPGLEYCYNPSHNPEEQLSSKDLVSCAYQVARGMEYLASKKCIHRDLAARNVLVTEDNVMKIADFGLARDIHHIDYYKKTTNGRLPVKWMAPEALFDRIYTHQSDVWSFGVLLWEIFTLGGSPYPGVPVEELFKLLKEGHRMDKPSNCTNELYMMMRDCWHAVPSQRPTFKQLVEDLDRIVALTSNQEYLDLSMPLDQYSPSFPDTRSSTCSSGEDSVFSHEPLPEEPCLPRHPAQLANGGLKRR
Description: as §4, §5

HepG2 cells [5] = assay: MTT cell viability assay; format: cell-based; settings: Homo sapiens
Description: (§6) To reconfirm the biological activity, we chose the most sensitive cell line Bel7404 from cellular assay and the widely used and the most characterized cell line HepG2 to examine the effects of E5 on cell proliferation by MTT assay. […] Given that cell cycle arrest plays a significant role in inhibiting cancer cell growth, we subsequently examined the effects of E5 on cell cycle distribution of Bel7404 and HepG2 cells.
(§7) Cell viability was measured by methyl thiazolyl tetrazolium (MTT) assay. Cells were seeded in 96-well plate at a density of 1 × 10^4 cells/well. After overnight incubation, solution of E5 in DMSO with incremental concentrations (0–30 μM) were added to the cells and further incubated for 3 days. During this period, three wells were selected from each group of cells every day for the MTT (50 μg/well) assay. After the cells had been incubated at 37 °C for 4 h, the reaction was stopped by adding 150 μL/well of DMSO, and incubating for 10 min. The absorbance was measured at a wavelength of 490 nm by a Microplate Reader (BioTek, USA).

Bel7404 cells [6] = assay: MTT cell viability assay; format: cell-based; settings: Homo sapiens
Description: as §6, §7

IC50 (ABL1): 9.35 µM
IC50 (BLK): > 25 µM
IC50 (CSF1R): 1120 nM
IC50 CSF1R (CSF1R): moderate inhibitory activity
IC50 (ABL2): 4.36 µM
IC50 (B-raf): > 25 µM
IC50 (FGFR1): > 25 µM
IC50 (HepG2 cells [5]; HepG2, 24 h, 24 h): 8.49 ± 0.82 µM
IC50 (HepG2 cells [5]; HepG2, 48 h, 48 h): 5.44 ± 0.23 µM
IC50 (HepG2 cells [5]; HepG2, 72 h, 72 h): 4.72 ± 0.96 µM
IC50 (Bel7404 cells [6]; BEL-7404, 24 h): 18.2 ± 2.38 µM
IC50 (Bel7404 cells [6]; BEL-7404, 48 h): 9.68 ± 1.46 µM
IC50 (Bel7404 cells [6]; BEL-7404, 72 h): 6.62 ± 0.15 µM
Structure (SMILES): Cc1ccc(NC(=O)c2ccc(CN3CCN(C)CC3)cc2)cc1Oc1nccc(-c2cc3ccccc3o2)n1 [E5, N-(3-((4-(benzofuran-2-yl)pyrimidin-2-yl)oxy)-4-methylphenyl)-4-((4-methylpiperazin-1-yl)methyl)benzamide]
Conversion of LC3-I to LC3-II (HepG2 cells [1]): induced the conversion of LC3-I to LC3-II in a dose- and time-dependent manner
Conversion of LC3-I to LC3-II (Bel7404 cells [2]): induced the conversion of LC3-I to LC3-II in a dose- and time-dependent manner
Effect on cell cycle distribution (HepG2 cells [3]): elicited G2/M phase arrest in a dose-dependent manner
Effect on cell cycle distribution (Bel7404 cells [4]): elicited G2/M phase arrest in a dose-dependent manner
